{"source": "patent US20090142281A1", "about": "“Composition Comprising A Coupled Enzyme System” (priority 2005, published 2009)", "format_in_all_cases": "biochemical", "key": {"[1]": {"target": "T1, Sorbitol oxidase (Streptomyces coelicolor, UniProt Q9ZBU1)", "T1 construct": "made in house; host or cells: Streptomyces lividans g3s3 (vector pKB105, PSMM-SOX)", "T1 sequence (Q9ZBU1 other isoform, or with tags, fused parts or gaps)": "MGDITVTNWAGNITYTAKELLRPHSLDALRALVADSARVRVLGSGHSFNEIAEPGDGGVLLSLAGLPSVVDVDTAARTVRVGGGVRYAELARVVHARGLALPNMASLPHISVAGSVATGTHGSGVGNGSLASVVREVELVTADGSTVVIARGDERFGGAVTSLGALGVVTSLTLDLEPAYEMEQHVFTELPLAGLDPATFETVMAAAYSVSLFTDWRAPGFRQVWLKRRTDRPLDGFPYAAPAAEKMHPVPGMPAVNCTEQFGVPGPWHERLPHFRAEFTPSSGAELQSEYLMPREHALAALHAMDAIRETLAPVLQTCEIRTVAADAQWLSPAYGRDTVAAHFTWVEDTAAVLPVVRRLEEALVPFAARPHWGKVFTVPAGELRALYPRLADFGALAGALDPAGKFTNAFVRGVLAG", "method": "Sorbitol oxidase obtained using the methods described in Example 3-4, was tested for finding its activity with various polyol substrates. All substrates used in the assay were 55 mM in 100 mM phosphate buffer pH 7.0 at 25° C. The relative activity using sorbitol as (++++++=100%) is shown below in Table 1. In addition to these substrates, it is contemplated that other substrates, including, but not limited to glycerol, will find use in the present invention."}, "[2]": {"target": "T1, Sorbitol oxidase", "assay": "Relative activity of sorbitol oxidase on xylitol and sorbitol (ABTS assay)", "details": "rate of H2O2 production, substrate in excess, same amount of enzyme", "method": "The commonly used horse radish peroxidase dye substrate ABTS was incorporated into an assay, measuring the production of H2O2 produced by HOX or GOX respectively. ABTS serves as a chromogenic substrate for peroxidase. Peroxidase in combination with H2O2 facilitates the electron transport from the chromogenic dye, which is oxidised to an intensely green/blue compound.\nAn assay mixture contained 266 μl sorbitol (Sigma P-5504, 0.055 M in 0.1 M sodium phosphate buffer, pH 6.3), (or alternative substrate, e.g. xylitol), 12 μl 2,2′-Azino-bis(3-ethylbenzothiozoline-6-Sulfonic acid) (ABTS) (Sigma A-9941, 5 mg/ml aqueous solution), 12 μl peroxidase (POD) (Sigma P-6782, 0.1 mg/ml in 0.1 M sodium phosphate buffer, pH 6.3) and 10 μl enzyme (SOX or HOX) aqueous solution.\nThe assay is performed at 25° C.\nThe incubation was started by the addition of glucose. The absorbance was monitored at 405 nm in an ELISA reader. A standard curve, based on varying concentrations of H2O2, was used for calculation of enzyme activity according to the definition above.\nThe purpose was to measure the difference in activity of sorbitol oxidase on D-sorbitol and D-xylitol. The ABTS assay was used as described previously to measure the rate of H2O2 production when both D-sorbitol and D-xylitol was in excess. The same amount of enzyme, as prepared in the previous examples was used in both cases. […]"}, "[3]": {"test_system": "hydrogen peroxide production", "assay": "Synergy between the two enzymes: initial velocity of H2O2 production in 300 uL ABTS assay", "details": "further enzyme at 1× to 3000× excess over polyol oxidase; especially at dosages greater than 1×", "text": "In the example below the amounts of enzyme are given as unit amounts.\nA unit of HOX is the amount of enzyme that produced 1 umol H202/min when substrates are in excess.\nA unit of GOX is the amount of enzyme that produced 1 umol H202/min when substrates are in excess.\nA unit of SOX is the amount of enzyme that produced 1 umol H202/min when substrates are in excess.\nThe generated sugar will be the limiting factor for the secondary enzyme. As noted above the activity is given as a percentage value of SOX catalysing D-sorbitol when both D-sorbitol and oxygen is in excess.\nInitial velocities were measured over 5 minutes in 300 uL ABTS assay (as described previously). The production of rate of hydrogen peroxide production was extrapolated from a standard curve. The measured activity, shown in FIG. 3 and FIG. 4 are given as a percentage value. 100% is defined as the rate of hydrogen peroxide production by sorbitol oxidase alone, when the substrates D-sorbitol and oxygen is in excess (Linear velocity curves)"}, "[4]": {"assay": "In gel overlay activity assay (PMS/NBT) using sorbitol as substrate", "details": "native gel", "text": "b) In gel overlay activity assay (PMS/NBT) using sorbitol as substrate.\nThe cell lysates were fractionated on a native gel that was further tested in an in-gel overlay activity assay using sorbitol as the substrate and an assay based on the PMS mediated reduction of NBT. […] The PMS/NBT is a diagnostic assay for flavoproteins where PMS=phenazine methosulfate is a redox mediator which is reduced by reduced FAD."}, "[5]": {"details": "substrate 55 mM in 100 mM phosphate buffer pH 7.0 at 25° C., relative to sorbitol"}}, "note": "Like-named read-outs stand apart in the source and are kept apart here."}
{"compound": "OC[C@@H](O)[C@@H](O)[C@H](O)[C@@H](O)CO", "note": "[D-Sorbitol]", "values": [{"measurement": "Relative Activity (+, 0)", "setting": "[1]; [5]", "value": "+ + + + + +"}, {"measurement": "Relative activity%", "setting": "[2]", "value": 100, "unit": "%"}]}
{"compound": "OC[C@@H](O)[C@@H](O)[C@H](O)[C@H](O)CO", "note": "[D-Mannitol]", "values": [{"measurement": "Relative Activity (+, 0)", "setting": "[1]; [5]", "value": "+ + +"}]}
{"compound": "OCCO", "note": "[Ethylene glycol]", "values": [{"measurement": "Relative Activity (+, 0)", "setting": "[1]; pH 7", "value": 0}]}
{"compound": "CC(O)CO", "note": "(stereo not drawn) [Propylene glycol]", "values": [{"measurement": "Relative Activity (+, 0)", "setting": "[1]; [5]", "value": 0}]}
{"compound": "glucose oxidase [reference compound]", "values": [{"measurement": "synergy in initial velocity of H2O2 production (FIG. 4)", "setting": "[3]", "value": "dramatic synergy"}, {"measurement": "activity towards sorbitol (stained band)", "setting": "[4]", "value": "not active towards sorbitol"}]}
{"compound": "OC[C@@H](O)[C@H](O)[C@@H](O)CO", "note": "[D-Xylitol]", "values": [{"measurement": "Relative Activity (+, 0)", "setting": "[1]; pH 7", "value": "+ + + +"}, {"measurement": "Relative activity%", "setting": "[2]", "value": 47.6, "unit": "%"}]}
